In patent US10500198B2, “Bis-benzylidine piperidone proteasome inhibitor with anticancer activity” (The Johns Hopkins University, priority 2013, dated 2019):

Experiments:
HeLa cells [1] = experiment: Active caspase-3 by FACS; type: cell-based, human; conditions: 1 μM, 8 h
Protocol: HeLa cells were treated with RA195 (1 μM) and Bz(1 μM) for the period of 8 h. Cells were stained for PE-conjugated Caspase-3 antibody and measured active caspase-3 by FACS.

U266 cells = experiment: Active caspase-3 by FACS; type: cell-based; conditions: 0.5 μM, 8 h
Protocol: U266 cells were treated with RA195 (0.5 μM) and Bz(0.5 μM) for the period of 8 h. Cells were stained for PE-conjugated Caspase-3 antibody and measured active caspase-3 by FACS.

C33A = experiment: Cell viability after 48-hr treatment (Table 1); type: cell-based; conditions: 48-hr treatment; XTT assay; read-out: IC50, C33A
Protocol: (§1) Cell viability was assayed using CellTiter 960 AQueous One Solution Reagent (Promega, Madison, Wis.). Cells seeded at the concentration of 1,000 cells/well for HeLa, 5,000 cells/well for ES2 and HCT116 and 10,000-20,000 cells/well for other cell lines in 100 μL medium in 96-well plate were treated with RA series compounds at specified concentrations. […]

FaDu = experiment: Cell viability after 48-hr treatment (Table 1); type: cell-based; conditions: 48-hr treatment; XTT assay; read-out: IC50, FaDu
Protocol: as §1

MM.1S = experiment: Cell viability after 48-hr treatment (Table 1); type: cell-based; conditions: XTT assay
Protocol: as §1

SKOV3 = experiment: Cell viability after 48-hr treatment (Table 1); type: cell-based; conditions: 48-hr treatment; XTT assay; read-out: IC50, SKOV3
Protocol: as §1

MM lines = experiment: Cell viability, MM lines; type: cell-based; conditions: antiproliferative effects, 48-hr treatment; read-out: IC50 against MM lines
Protocol: (§2) Cell viability was assayed using CellTiter 960 AQueous One Solution Reagent (Promega, Madison, Wis.). Cells seeded at the concentration of 1,000 cells/well for HeLa, 5,000 cells/well for ES2 and HCT116 and 10,000-20,000 cells/well for other cell lines in 100 μL medium in 96-well plate were treated with RA series compounds at specified concentrations. After the indicated periods, cells were incubated according to the manufacturer's protocol with the MTS labeling mixture for 1-2 hr and absorbance at 490 nm measured using a Benchmark Plus microplate spectrophotometer (BIO-RAD).

HPV transformed cells = experiment: Cell viability, HPV transformed cells; type: cell-based; conditions: antiproliferative effects, 48-hr treatment; read-out: IC50 against HPV transformed cells
Protocol: as §2

RPN13 Pru domain = target: T1, RPN13 Pru domain (Homo sapiens, UniProt Q16186); experiment: NMR and LC-MS of RA190-exposed RPN13; type: binding; conditions: site-directed mutagenesis, NMR
T1 construct: RPN13 (1-150), which includes its Pru domain; made in house
T1 sequence (Q16186 1-150): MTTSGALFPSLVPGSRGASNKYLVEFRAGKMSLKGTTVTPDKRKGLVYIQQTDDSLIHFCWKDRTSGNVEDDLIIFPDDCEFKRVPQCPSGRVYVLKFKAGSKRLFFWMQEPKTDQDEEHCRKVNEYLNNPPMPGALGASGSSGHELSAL
Protocol: By contrast, RPN13 Pru C^60,80,121.
NMR spectra were acquired at 25° C. or 10° C. on Bruker NMR spectrometers operating at 850 or 900 MHz and equipped with cryogenically cooled probes. Processing was performed in NMRPipe^13 and the resulting spectra visualized with XEASY.^3 Protein concentrations were calculated by extinction coefficients based on amino acid composition and absorbance at 280 nm for protein dissolved in 6 M guanidine-HCl.
RPN13 Pru domain and RA190-exposed RPN13, RPN13 Pru domain, RPN13 Pru C60,80,121A, and RPN13 Pru C88A at protein concentrations of 1 μg/μL were treated with formic acid and injected onto a Nano2D-LC HPLC system (Eksigent, Dublin, Calif.) equipped with an Agilent Zorbax 300SB C8 column (3 mm ID, 10 cm length, 3.5 μm particle size). The samples were subjected to 10 min of incubation in 98% H2O:2% CH3CN, a 20 min linear gradient at 10 μL/min flow rate to 75% H2O:25% CH3CN followed by a 12 min linear gradient to 5% H2O:95% CH3CN and then a 2 min hold. Analysis was conducted by positive ionization electrospray with an LTQ-Orbitrap Velos instrument (Thermo Scientific, Waltham, Mass.) and adducts were quantified utilizing the Orbitrap detector with a resolution of 100,000 at a scan range of 400-2000 m/z.

HeLa cells [2] = experiment: Cell surface HSP90 staining; type: cell-based, human; conditions: 24 hr
Text: Cell surface HSP90 was detected by staining with purified anti-HSP90 mAb (Stressgen), followed by PE-conjugated anti-mouse IgG1. The data were acquired with a FACSCalibur and analyzed using CellQuest software.

[3] = Pharmacokinetic measurements, plasma; type: in vivo, mouse; conditions: 10 mg/kg i.p., BALB/c mice
Protocol: Tissue was harvested at 48 hr after single-dose intraperitoneal administration in non-tumor bearing mice. Blood was collected by cardiac puncture under anesthesia into heparinized syringes and centrifuged to obtain plasma. Tissues were rapidly dissected and snap frozen in liquid nitrogen. Samples were stored frozen at −70° C. until analysis. […] Tissue homogenates were prepared at a concentration of 200 mg/mL in PBS and further diluted 1:10 in mouse plasma before extraction using acetonitrile containing temazepam (100 ng/mL). Separation was achieved on Waters X-Terra™ C18 (50 mm×2.1 mm i.d., 3 μm) at room temperature using isocratic elution with acetonitrile/water mobile phase (70:30, v/v) containing 0.1% formic acid at a flow rate of 0.2 mL/min. […] Samples were quantitated over the assay range of 10 to 1000 ng/mL or 0.6 to 60 μg/g. […] Cmax and Tmax were the observed values from the mean data. The AUClast was calculated using the log-linear trapezoidal rule to the end of sample collection (AUClast) and extrapolated to infinity (AUC0-∞) by dividing the last quantifiable concentration by the terminal disposition rate constant (λz), which was determined from the slope of the terminal phase of the concentration-time profile. The half-life (T1/2) was determined by dividing 0.693 by λz. Relative bioavailability was calculated as follows: […]

Structure (SMILES)	active caspase-3 (HeLa cells [1])	active caspase-3 (U266 cells)	IC50 (C33A) [nM]	IC50 (FaDu) [nM]	IC50 (MM.1S) [nM]	IC50 (SKOV3) [nM]	IC50 (MM lines) [nM]	IC50 (HPV transformed cells) [nM]	site of RA190 ligation (RPN13 Pru domain)	cells with cell-surface HSP90 (HeLa cells [2]) [%]	AUC [3] [ng·h/mL]	C1/F [3] [mL/min/kg]	Cmax [3] [ng/mL]	T1/2,α (distribution half-life) [3] [h]	T1/2,β (terminal half-life) [3] [h]	Ud/F [3] [L/kg]
Cl.NCCCC[C@H](NC(=O)OCC1c2ccccc2-c2ccccc21)C(=O)N1C/C(=C\c2ccc(Cl)c(Cl)c2)C(=O)/C(=C/c2ccc(Cl)c(Cl)c2)C1 [RA195]	induced active capase expression	caused an increase in caspase-3 expression	–	–	–	–	–	–	–	–	–	–	–	–	–	–
Cl.N[C@@H](Cc1ccccc1)C(=O)N1CC(=Cc2ccc(Cl)c(Cl)c2)C(=O)C(=Cc2ccc(Cl)c(Cl)c2)C1 [RA190, 3,5-bis(3,4-dichlorobenzylidene)-1-(S-2-amino-3-phenyl)-piperidin-4-one-HCl salt]	–	–	> 5000	> 2500	35	> 2500	≤ 100	≤ 300	ligates to RPN13 C88	54.2	4393	38.3	808	4.2	25.5	83.61
